From the NIST ThermoML archive (doi:10.1021/acs.jced.5b01104)
Numbers after ± are expanded uncertainties.

Conditions: Liquid, Chromatography

## O [water]
412.6 K
  vapor or sublimation pressure: 356 ± 28 kPa
443.2 K
  vapor or sublimation pressure: 792 ± 62 kPa
483.2 K
  vapor or sublimation pressure: 1902 ± 150 kPa
